Here are results for 5 compounds from patent US12441762B2, “Hepatitis c virus NS3/4A protease inhibitors” (priority 2019, dated 2025).

Broadly, the Ki is the equilibrium dissociation constant of an inhibitor or competing ligand from its target.

Where two headings read alike, the source gives them in different places.

For data set [1] the following is noted: rcm bond, 70.0 °C, 6.0 h.
Data set [2] has as its target T1, HCV NS3/4A protease D168A variant (Hepatitis C virus genotype 1a, UniProt P27958, C1185S/D1194A).
T1 construct: His-tag (cleaved yes); made in house; host or cells: Escherichia coli BL21(DE3), PET28a vector
The data set is described as follows: biochemical. It counts as biochemical. In outline: (§1)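 Inhibitors pre-incubated 1 h at room temperature with 2 nM NS3/4A protease (GT1a C159S or D168A) in 50 mM Tris, 5% glycerol, 10 mM DTT, 0.6 mM LDAO, 4% DMSO, pH 7.5. Km from global Michaelis-Menten fit of inner-filter-corrected initial velocities; three independent data sets per inhibitor and construct.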

In data set [3] the target is T2, wild-type HCV NS3/4A protease (GT1a) (Hepatitis C virus genotype 1a, UniProt P27958, C1185S).
T2 construct: His-tag (cleaved yes); made in house; host or cells: Escherichia coli BL21(DE3), PET28a vector
T2 sequence (P27958 1027-1208 C1185S): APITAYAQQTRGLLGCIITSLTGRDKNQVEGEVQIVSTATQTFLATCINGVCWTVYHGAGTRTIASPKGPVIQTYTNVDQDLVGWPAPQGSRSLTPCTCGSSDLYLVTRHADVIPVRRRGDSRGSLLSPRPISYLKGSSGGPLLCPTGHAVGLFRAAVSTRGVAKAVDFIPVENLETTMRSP
The data set is described as follows: biochemical. It counts as biochemical. In outline:
as §1

For data set [4], the system named is HCV NS3/4A protease D168A variant. Description: biochemical. It counts as biochemical, Hepatitis C virus. Conditions: Table S1, value in parentheses. In outline: as §1
The next data set addresses HCV NS3/4A protease GT3 (Hepatitis C virus genotype 3a, UniProt Q81495). Description: biochemical.
The conditions of data set [5]: rcm bond, 15-membered ring, Zhan 1B, 1,2-DCE, 70.0 °C.

T1 sequence (P27958 1027-1208 C1185S/D1194A): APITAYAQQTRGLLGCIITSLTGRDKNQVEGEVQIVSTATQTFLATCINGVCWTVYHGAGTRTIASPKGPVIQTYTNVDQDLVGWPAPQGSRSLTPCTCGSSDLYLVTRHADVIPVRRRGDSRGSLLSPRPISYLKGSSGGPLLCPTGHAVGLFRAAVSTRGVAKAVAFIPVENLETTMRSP
Sequence of HCV NS3/4A protease GT3 (Q81495 1033-1214): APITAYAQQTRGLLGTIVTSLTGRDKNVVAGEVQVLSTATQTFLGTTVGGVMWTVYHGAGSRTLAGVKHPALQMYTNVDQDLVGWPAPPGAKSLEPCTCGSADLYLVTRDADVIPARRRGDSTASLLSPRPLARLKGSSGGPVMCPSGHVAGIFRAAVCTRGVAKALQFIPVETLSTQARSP
Sequence of HCV NS3/4A protease GT3 (Q81495 1664-1717): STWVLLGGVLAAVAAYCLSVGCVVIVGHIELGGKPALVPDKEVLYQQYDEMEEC

Consider `COc1ccc2nc(C(F)(F)F)c(O[C@@H]3C[C@H]4C(=O)N[C@]5(C(=O)NS(=O)(=O)C6(C)CC6)C[C@H]5/C=C\CCCCC[C@H](NC(=O)OC(C)(C)C)C(=O)N4C3)nc2c1` [CH-24, tert-Butyl ((2R,6S,13aS,14aR,16aS, Z)-2-((7-methoxy-3-(trifluoromethyl)quinoxalin-2-yl)oxy)-14a-(((1-methylcyclopropyl)sulfonyl)carbamoyl)-5,16-dioxo-1,2,3,5,6,7,8,9,10,11,13a,14,14a,15,16,16a-hexadecahydrocyclopropa[e]pyrrolo[1,2-a] [1,4]diazacyclopentadecin-6-yl) carbamate], for which, in data set [1] (from C=CCCCCC[C@H](NC(=O)OC(C)(C)C)C(=O)N1C[C@H](Oc2nc3cc(OC)ccc3nc2C(F)(F)F)C[C@H]1C(=O)N[C@]1(C(=O)NS(=O)(=O)C2(C)CC2)C[C@H]1C=C, Zhan 1B, 1,2-dichloroethane, 5.73 mM), the ring closure, yield of all isomers stood at 73%. Further, the inhibition constant (Ki) was found to be 118 ± 13 nM in data set [2] and 5.77 ± 1.78 nM in data set [3].

`COc1ccc2nc(C)c(O[C@@H]3C[C@H]4C(=O)N[C@]5(C(=O)NS(=O)(=O)C6(C)CC6)C[C@H]5/C=C\CCCCC[C@H](NC(=O)OC(C)(C)C)C(=O)N4C3)nc2c1` [JZ01-15, tert-Butyl ((2R,6S,13aS,14aR,16aS, Z)-2-((7-methoxy-3-methylquinoxalin-2-yl)oxy)-14a-(((1-methylcyclopropyl)sulfonyl)carbamoyl)-5,16-dioxo-1,2,3,5,6,7,8,9,10,11,13a,14,14a,15,16,16a-hexadecahydrocyclopropa[e]pyrrolo[1,2-a] [1,4]diazacyclopentadecin-6-yl) carbamate]: the ring closure, yield of all isomers in data set [1] (from C=CCCCCC[C@H](NC(=O)OC(C)(C)C)C(=O)N1C[C@H](Oc2nc3cc(OC)ccc3nc2C)C[C@H]1C(=O)N[C@]1(C(=O)NS(=O)(=O)C2(C)CC2)C[C@H]1C=C, Zhan 1B, 1,2-dichloroethane, 4.95 mM) was found to be 70%; in data set [1] (from C=CCCCCC[C@H](NC(=O)OC(C)(C)C)C(=O)N1C[C@H](Oc2nc3cc(OC)ccc3nc2C)C[C@H]1C(=O)N[C@]1(C(=O)NS(=O)(=O)C2(C)CC2)C[C@H]1C=C, Zhan 1b catalyst, 1,2-DCE, 4.95 mM), 70%. In addition, the Ki worked out at 52 ± 2.4 nM in data set [2] and 3.6 ± 0.44 nM in data set [3]. The “Fold Change of D168A Ki with respect to GT1a wild-type” value in data set [4] is “(14) fold”.

Turning to `COc1ccc2nc(C)c(O[C@@H]3C[C@H]4C(=O)N[C@]5(C(=O)NS(=O)(=O)C6(C)CC6)C[C@H]5/C=C\CCCCC[C@H](NC(=O)O[C@@H]5C[C@@H]6C[C@@H]6C5)C(=O)N4C3)nc2c1` [NR03-77, (1R,3R,5S)-Bicyclo[3.1.0]hexan-3-yl ((2R,6S,13aS,14aR,16aS,Z)-2-((7-methoxy-3-methylquinoxalin-2-yl)oxy)-14a-(((1-methylcyclopropyl)sulfonyl)carbamoyl)-5,16-dioxo-1,2,3,5,6,7,8,9,10,11,13a,14,14a,15,16,16a-hexadecahydrocyclopropa[e]pyrrolo[1,2-a][1,4]diazacyclopentadecin-6-yl)carbamate], the figures for the inhibition constant Ki (in data set [2]; in data set [3]; at HCV NS3/4A protease GT3) were 2.3 ± 0.7 nM, 0.54 ± 0.2 nM and 38.6 ± 1.5 nM, respectively. In addition, the “fold more potent than grazoprevir towards D168A” value in data set [2] (compared to grazoprevir) was 20 fold. Moreover, the “fold increase in potency against D168A compared to the parent compound” value in data set [2] (compared to parent compound) is on record as 26 fold. Further, in data set [4], the “Fold Change of D168A Ki with respect to GT1a wild-type” value is recorded as “(4) fold”. Besides, the “fold improvement in potency against WT compared to P4-2” value in data set [3] (compared to P4-2) was ~3 fold.

In turn, “tert-Butyl ((2R,6S,13aS,14aR,16aS, Z)-2-((7-methoxy-3-(trifluoromethyl) quinoxalin-2-yl) oxy)-14a-(((1-methylcyclopropyl) sulfonyl) carbamoyl)-5,16-dioxo-1,2,3,5,6,7,8,9,10,11,13a,14,14a,15,16,16a-hexadecahydrocyclopropa[e]pyrrolo[1,2-a] [1,4] diazacyclopentadecin-6-yl) carbamate” returned a ring closure, isolated yield in data set [5] (5.73 mM) of 73%.

On to “tert-Butyl ((2R,6S,13aS,14aR,16aS, Z)-2-((7-methoxy-3-methylquinoxalin-2-yl) oxy)-14a-(((1-methylcyclopropyl) sulfonyl) carbamoyl)-5,16-dioxo-1,2,3,5,6,7,8,9,10,11,13a,14,14a,15,16,16a-hexadecahydrocyclopropa[e]pyrrolo[1,2-a] [1,4] diazacyclopentadecin-6-yl) carbamate”, for which the ring closure, isolated yield in data set [5] (4.95 mM) stood at 70%.
